{
  "source": "paper PMC12677843",
  "about": "“Multidisciplinary Preclinical Investigations on Ferrocenyl, Ruthenocenyl, and Benzyl Derivatives of Niridazole as New Drug Candidates against Schistosomiasis” (Chemmedchem, 2025)",
  "key": {"[1]": {"system": "S. mansoni newly transformed schistosomula (NTS)", "assay": "In vitro evaluation on newly transformed schistosomula (NTS)", "assay_type": "cell-based, Schistosoma mansoni", "procedure": "2. Experimental section for biological experiments\nStock solutions of the test compounds\nStock solution of a concentration of 10 mM in pure DMSO (Sigma-Aldrich, Switzerland) were prepared of the 12 compounds, these stock solutions were used for all in vitro evaluations from activity tests in S. mansoni to the cytotoxic determinations in HUH7 hepatocyte-derived carcinoma cells, and in SH-SY5Y neuroblastoma cells.\nThe solutions were thoroughly vortexed and sonicated to enable a good dissolution of the compounds and homogenous stock solutions.\n2.1 In vitro evaluations in S. mansoni\nIn vitro evaluation on newly transformed schistosomula (NTS)\nTo obtain newly transformed schistosomula (NTS) the lifecycle of S. mansoni (strain originates from West Africa, Liberia) is maintained at the Swiss Tropical and Public Health Institute (Swiss TPH). As previously described, cercariae are collected from infected Biomphalaria glabrata snails and then mechanically transformed into NTS. 8 After HBSS (Gibco, Waltham MA, USA) washing to get rid of the detached tails, the NTS were kept overnight (min. 12 h, max. 24 h) in culture medium at 37 °C and 5 % CO2 to complete their transformation process, before the drug sensitivity assay was started. The drug assays were performed in the same culture medium consisting of medium M199 (Gibco, Waltham MA, USA) supplemented with 5 % v/v inactivated fetal calf serum (iFCS; Bioconcept AG, Allschwil, Switzerland), 1% antibiotics mixture developed by Mäser et al., 9 and 1 % penicillin 10,000 U/mL, and streptomycin 10 mg/mL solution (Sigma-Aldrich, Buchs, Switzerland). The assay was performed in a 96-well plate, with 30−40 NTS per well in a final volume of 250 μL. NTS incubated in culture medium containing 0.5 % DMSO but no drug served as negative controls.\nMicroscopic evaluation was performed after 24, 48 and 72 h of incubation of the parasites at 37 °C and 5 % CO 2. Their overall viability was scored from 0 (death) to 3 (full viability) by a phenotypic screening method based on their motility, morphology, […]\nand granularity. […]"}, "[2]": {"system": "SH-SY5Y cells", "assay": "SYTOX cell viability assay, SH-SY5Y", "assay_type": "cell-based, human", "conditions": "20 µM, 24 h, serum-free charcoal-treated medium, vs DMSO control (0.2%), mean", "procedure": "The SYTOX cell viability assay was performed in SHSY5Y cells. Cells were treated with either compound (20 µM) or DMSO control (0.2%) for 24 h at 37 °C and 5% CO2 in serum‐free charcoal‐treated medium. Results were normalized to the DMSO control. Mean ± SD was calculated from three independent experiments, each performed in quadruplicate. […]\nserum-free media containing either treatment at a concentration of 20 µM or DMSO (ITW Reagents Cat A3672) control (0.2 %).\nFollowing 24 h of incubation, 12.5 μL of an XTT/phenazine methosulfate (PMS) (XTT Sigma Aldrich cat X4626, PMS Serva CAT: 3203) 0.02solution (1 mg/mL XTT and 7.5 μg/mL PMS) was added to each well. Absorbance was measured using a microplate reader (Biotek Synergy HT) at 450 nm (signal) and 650 nm (background), 2 h after the addition of the XTT/PMS solution. Individual backgrounds were subtracted and all results were normalized to DMSO control. Mean ± SD was determined from three independent experiments, each performed in quintuplicate.\nSYTOX cell viability assay\nThe cytotoxic potential was additionally evaluated using the staining-based SYTOX viability assay. […] Data was acquired on the BioTeck Cytation5 microscope and evaluated by the manufacturer’s software (Gen5 Image Prime Version 3.12). […] Mean ± SD was determined from three independent experiments, each performed in quadruplicate. […]"}},
  "note": "pEC50: −log10 of the molar value.",
  "data": [
    {"smiles": "O=C1NCCN1c1ncc([N+](=O)[O-])s1", "note": "[Niridazole, niridazole]", "values": [
      {"measurement": "pEC50", "setting": "[1]; Schistosoma mansoni, 72 h incubation, 37 °C, 5% CO2", "value": "< 4.30"},
      {"measurement": "drug effect at 50 µM on S. mansoni NTS", "setting": "[1]; highest tested concentration 50 µM", "value": "not impaired"},
      {"measurement": "reduction of SH-SY5Y cell viability (SYTOX)", "setting": "[2]", "value": "no signs of toxicity"}
    ]}
  ]
}
